Like-named read-outs stand apart in the source and are kept apart here.
Tests used:
[1] = test system: HCT116 (human colon cancer cells); assay: In vitro anti-tumor cell proliferation activity (MTT method), HCT116; type: cell-based; settings: read-out: IC50 values of in vitro anti-cell proliferation activity
Method: (§1) Tested cell lines S180 (mouse ascites tumor cells), LLC (mouse lung cancer cells), A549 (human non-small cell lung cancer cells), HCT116 (human colon cancer cells), U2Os (human osteosarcoma cells), and MCF-7 (human breast cancer cells) each were purchased from Nanjing KeyGen Biotech.
(§2) When preparing a test sample, the test compound was prepared into a sample solution with a concentration of 500 μM (with a final concentration 100 μM) by a PBS buffer containing 0.5% DMSO, which was used for preliminary screening of an anti-cell proliferation experiment in vitro.
(§3) Positive control group: doxorubicin, prepared to a required concentration with PBS buffer containing 0.5% DMSO; negative control group: a PBS buffer containing 0.5% DMSO; blank group: a PBS buffer containing 0.01% DMSO.

[2] = test system: S180 (mouse ascites tumor cells); assay: In vitro anti-tumor cell proliferation activity (MTT method), S180; type: cell-based; settings: read-out: IC50 values of in vitro anti-cell proliferation activity
Method: as §1, §2, §3

[3] = test system: U2Os (human osteosarcoma cells); assay: In vitro anti-tumor cell proliferation activity (MTT method), U2Os; type: cell-based; settings: 48 h, read-out: IC50 values of in vitro anti-cell proliferation activity
Method: as §1, §2, §3

[4] = test system: A549 (human non-small cell lung cancer cells); assay: In vitro anti-tumor cell proliferation activity (MTT method), A549; type: cell-based; settings: read-out: IC50 values of in vitro anti-cell proliferation activity
Method: as §1, §2, §3

[5] = test system: MCF-7 (human breast cancer cells); assay: In vitro anti-tumor cell proliferation activity (MTT method), MCF-7; type: cell-based; settings: Homo sapiens, read-out: IC50 values of in vitro anti-cell proliferation activity
Method: as §1, §2, §3

[6] = test system: LLC (mouse lung cancer cells); assay: In vitro anti-tumor cell proliferation activity (MTT method), LLC; type: cell-based; settings: 48 h, read-out: IC50 values of in vitro anti-cell proliferation activity
Method: as §1, §2, §3

[7] = test system: mouse S180 sarcoma model; assay: Inhibition of tumor growth in vivo (mouse S180 sarcoma model); parameters: species or system male ICR mice; settings: for Average tumor weight: Mean ± SD, n 10
Method: The mice used in the experiment were male ICR mice of SPF grade, weighing 20 g±2 g, purchased from Beijing Vital River Laboratory Animal Technology Co., Ltd., and raised in an animal barrier of the Experimental Animal Department of Capital Medical University.
The specific method included: drugs were administered to tumor-forming mice by group for 7 consecutive days, a length of the tumor was measured every other day to calculate a tumor volume. 24 h after the last administration, the mice were weighed, anesthetized with diethyl ether, and eyeballs were removed to collect blood; the obtained whole blood was centrifuged at 1,000 rpm for 10 min, and a serum was absorbed for later use. The mice were sacrificed by neck dislocation, and the tumor mass and various organs were stripped and weighed (it was ensured that the operation was done as soon as possible and the stripping was complete and clean). The tumor inhibition rate was calculated by formula b, the results were shown in Table 2 and FIG. 2; and by calculating a viscera-weight ratio of each organ, and it was analyzed whether the test compound had obvious physiological effects on the mouse organs.

[8] = Water solubility; type: physicochemical; settings: decides the injection route
[9] = Nanomorphology characterization and stability (TEM, SEM, hydration particle size, Zeta potential); type: physicochemical
From the text: The nanomorphology of compounds ZD-B and ZD-E-1 were studied by TEM and SEM, and hydration particle size and Zeta potential of the two compounds in a solution were studied by a nanometer particle size analyzer. The results were shown in FIG. 1A-H. In FIG. 1A-H, FIG. 1A was a TEM image of the compound ZD-B; FIG. 1B was a TEM image of the compound ZD-E-1; FIG. 1C was a SEM image of the compound ZD-B; FIG. 1D was a SEM image of the compound ZD-E-1; FIG. 1E was a hydration particle size change curve of the compound ZD-B in solutions at different pH values within 72 h (0.5 h, 24 h, 48 h, and 72 h); FIG. 1F was a hydration particle size change curve of the compound ZD-E-1 in solutions at different pH solutions within 72 h; FIG. 1G was a Zeta potential change curve of the compound ZD-B in solutions at different pH values within 72 h; and FIG. 1H was a Zeta potential change curve of the compound ZD-E-1 in solutions at different pH values within 72 h.

[10] = Table 2, 2 μmol/kg, ip, 7 consecutive days
[11] = Table 2, 10 μmol/kg, ip, 7 consecutive days

## COc1cccc2c1C(=O)c1c(O)c3c(c(O)c1C2=O)C[C@@](O)(C(=O)CO)C[C@@H]3O[C@H]1C[C@H](N)[C@H](O)[C@H](C)O1 [DOX, doxorubicin, reference compound]
[1]; Homo sapiens, HCT-116, HCT116, 48 h, Mean ± SD
  IC50: 0.375 ± 0.108 µM
[2]; Mus musculus, S-180, S180, 48 h, Mean ± SD
  IC50: 0.49 ± 0.092 µM
[3]; Homo sapiens, U2Os, Mean ± SD
  IC50: 1.2 ± 0.034 µM
[4]; Homo sapiens, A549, 48 h, Mean ± SD
  IC50: 0.229 ± 0.052 µM
[5]; MCF7, MCF-7, 48 h, Mean ± SD
  IC50: 1.03 ± 0.188 µM
[6]; Mus musculus, LLC, Mean ± SD
  IC50: 0.19 ± 0.095 µM
[7]; [10]
  Tumor Inhibition Rate: 51.80%
  Average tumor weight: 0.861 ± 0.462 g

## CN(C)c1ccc2cc(C(=O)NC(CCCNC(=N)CCl)C(=O)NCc3ccccc3)ccc2c1 (stereo not shown) [YW3-56, N-(1-(benzylamino)-5-(2-chlorooxalimide)-1-oxopentan-2-yl)-6-(dimethylamino)-2-naphthylamide, reference compound]
[7]; [11]
  Tumor Inhibition Rate: 44.39%
  Average tumor weight: 0.994 ± 0.310 g
[7]; Table 3, 10 μmol/kg, iv
  Tumor Inhibition Rate: 44.38%
  Average tumor weight: 0.954 ± 0.298 g

## N=C(NCCC[C@H](Nc1ccc([N+](=O)[O-])c2nonc12)C(=O)OCc1ccccc1)N[N+](=O)[O-] [ZD-A, NBD-Arg(NO2)-OBzl]
[1]; Homo sapiens, HCT-116, 48 h
  IC50: > 100 µM
[2]; Mus musculus, S-180, 48 h
  IC50: > 100 µM
[3]; Homo sapiens, U2OS
  IC50: > 100 µM
[8]
  Water solubility: poor water solubility
[4]; Homo sapiens, A549, 48 h
  IC50: > 100 µM
[5]; MCF7, 48 h
  IC50: > 100 µM
[6]; Mus musculus
  IC50: > 100 µM
[7]; 10 μmol/kg, ip
  Average tumor weight compared with Vehicle group (one-way analysis of variance): different from that of Vehicle group
[7]; [11]
  Tumor Inhibition Rate: 36.19%
  Average tumor weight: 1.140 ± 0.437 g
[7]; Table 3, 2 μmol/kg, ip
  Tumor Inhibition Rate: 23.36%
  Average tumor weight: 1.315 ± 0.338 g
[7]; Table 3, 5 μmol/kg, ip
  Tumor Inhibition Rate: 28.20%
  Average tumor weight: 1.232 ± 0.102 g
[7]; Table 3, 10 μmol/kg, ip
  Tumor Inhibition Rate: 29.78%
  Average tumor weight: 1.204 ± 0.438 g

## CC(C)C[C@H](Nc1ccc([N+](=O)[O-])c2nonc12)C(=O)N[C@H](C(=O)OCc1ccccc1)C(C)C [ZD-B, NBD-LV-OBzl]
[1]; HCT116, 48 h, Mean ± SD
  IC50: > 100 µM
[2]; S180, 48 h, Mean ± SD
  IC50: 74.4 ± 10.1 µM
[3]; U2Os, Mean ± SD
  IC50: 86.4 ± 5.3 µM
[8]
  Water solubility: poor water solubility
[4]; A549, 48 h, Mean ± SD
  IC50: > 100 µM
[6]; LLC, Mean ± SD
  IC50: 96.5 ± 6.85 µM
[7]; 10 μmol/kg, ip
  Anti-tumor growth activity (in words): most prominent activities
  Average tumor weight compared with Vehicle group (one-way analysis of variance): significantly different from that of Vehicle group
[7]; [11]
  Tumor Inhibition Rate: 44.60%
  Average tumor weight: 0.990 ± 0.180 g
[7]; Table 3, 2 μmol/kg, ip
  Tumor Inhibition Rate: 17.00%
  Average tumor weight: 1.424 ± 0.434 g
[7]; Table 3, 5 μmol/kg, ip
  Tumor Inhibition Rate: 35.64%
  Average tumor weight: 1.104 ± 0.218 g
[7]; Table 3, 10 μmol/kg, ip
  Tumor Inhibition Rate: 41.23%
  Average tumor weight: 1.008 ± 0.472 g
[9]; TEM and SEM
  Nanomorphology (shape): shape of a strip
[9]; pH=2.0, measured continuously for 72 h
  Hydration particle size change: great change in particle size
[9]; pH=5.5, measured continuously for 72 h
  Hydration particle size change: great change in particle size
[9]; pH=7.0 versus other pH values, 72 h
  Hydration particle size: smallest particle size at pH=7.0
[9]; solutions at different pH values, measured continuously for 72 h
  Zeta potential change: neither ZD-B nor ZD-E-1 had an obvious change
